Measured values as given in patent US20080153792A1, “Drug Identification and Treatment Method” (priority 2006, published 2008).

Assays:
[1] = tested on: CD1 male mice, carrageenan-λ induced pleurisy; experiment: carrageenan-λ induced lung (pleural cavity) inflammation in mice; assay type: in vivo, mouse; conditions: for number of neutrophils relative to untreated carrageenan-λ control (100%): 4 h after carrageenan
[2] = tested on: BALB/c mice, OVA sensitized and challenged; experiment: ovalbumin (OVA) sensitized mouse model of asthma; assay type: in vivo; conditions: for IL-13: s.c. once daily, dexamethasone 5 mg/kg, compound 1 mg/mouse
Description: BALB/c mice were sensitized by intraperitoneal injection with OVA (in alum adjuvant) on days 1, and 12. Airways were challenged with OVA on days 28 and 30 by delivery of OVA to the lung, or with saline. […] The remaining animals were divided into 6 groups (6 mice per group). Groups of the mice were treated once daily by subcutaneous injection as follows. Group 1 vehicle control (0.1% carboxymethyl cellulose, 0.9% saline, 2% tween 80, 0.05% phenol). Group 2 dexamethazone (5 mg/kg). Group 3 3α,16α,17α-trihydroxyandrostane (1 mg/mouse). Three animals in groups 1-3 were sacrificed on day 35 at 1 hr after final treatment and the remaining 3 animals in groups 1-3 were sacrificed on day 38.

[3] = metabolic stability in liver microsomes, species not stated; assay type: in vitro ADME; conditions: compared with androst-5-ene-3β,17β-diol reference compound
Description: (§1) The protocol was performed as follows. […] (2) Set up samples as follows. […] (4) The internal standard/acetonitrile solution.

[4] = tested on: NF-κB in spleen cells of ICR mice; experiment: activated NF-κB in spleen cell nuclei after LPS, Example 8; assay type: in vivo, mouse; conditions: about 40 mg/kg i.p. 24 h before and 1 h after LPS; spleens 1.5 hours after LPS
Description: The capacity of selected compounds to treat LPS induced shock/inflammation in mice was examined by a protocol similar to the protocol described above. Five groups of three ICR mice weighing about 30 g were each treated by intraperitoneal injection with 120 μL vehicle (30% sulfobutylether-cyclodextrin in water), androst-5-ene-3α,7β,16α,17β-tetrol in vehicle, androst-5-ene-3β,4β,16α,17β-tetrol in vehicle or 4β-acetoxyandrost-5-ene-3β,16α,17β-triol in vehicle. All drug and vehicle formulations were solutions, not suspensions. The sulfobutylether-cyclodextrin was obtained commercially (Captisol™, www.cyclexinc.com). There were two vehicle control groups one group received vehicle alone and the other received vehicle plus LPS. […] Drug was administered at about 40 mg/kg (1.2 mg drug/animal for each administration of the drugs). Spleens were harvested from the animals at 1.5 hours after injection of LPS and spleen cells were lysed and assayed for activated NF-κB by isolating nuclei from spleen cells and measuring NF-κB from the lysed nuclei. […] The level of activated NF-κB in spleen cells from the animals that were treated with vehicle and no LPS, was essentially the same as the activated NF-κB in spleen cells from drug treated animals.

[5] = tested on: human peripheral blood mononuclear cells (PBMC); experiment: human mixed lymphocyte reaction (MLR); assay type: cell-based; conditions: 6 days
Description: Human mixed lymphocyte reaction (MLR). The capacity of 3β,16α-dihydroxy-17-oxoandrostane, 3β,17β-dihydroxy-16-oxoandrostane, 17α-ethynylandrost-5-ene-3β,7β,17β-triol, and 17β-aminoandrost-5-ene-3β-ol to affect antigen specific stimulation in which human T lymphocytes respond to a specific foreign antigen (major histocompatibility complex).
Blood samples were obtained from 3 (2 males, […]) fasting, healthy human volunteers of 23-31 years old. […] The subjects were bled between […] to limit possible fluctuations in the circulating levels of hormones or cytokines that could have influenced the in vitro responses of their lymphocytes. Peripheral blood mononuclear cells (PBMC) were isolated by centrifugation on Ficoll-Hypaque (density 1.077, Biochrom AG, Berlin, Germany) gradients and resuspended in culture medium (RPMI 1640 supplemented with 2 mM L-glutamine, penicillin (100 U/mL) and streptomycin ([…]) (Invitrogen s.rl., Milan, Italy). Autologous (responder) inactivated plasma was used at 10%. Five hundred thousand responder PBMC (PBMCr) and 500,000 allogeneic irradiated (30 Gy) stimulator PBMC (PBMCs) were mixed at a ratio of 1:1 in 200 μL medium and cultured for 6 days in flat bottom 96 well plates (Nunc, Roskilde, Denmark) at a concentration of 300 nM or 30 nM for each of the 4 compounds. The compounds were dissolved in ethanol and then diluted to the desired concentration with culture medium leading to a final solution containing 0.01% of ethanol. This vehicle was used as control. Controls also included PBMCr and PBMCs cultured separately. During the last 8 hours of the culture period the PBMC were pulsed with 1 μCi/well [^3H] thymidine (Amersham, Milan, Italy). The cells were then harvested and radioactivity incorporation measured with a beta cell counter. The mean cpm of quadruplicate wells was calculated. Proliferation of T cells was expressed as a stimulation index: SI=cpm (PMBCs xPBMCr)/cpm (PBMCr)+cpm (PBMCs). Statistical analysis was performed using the Student's t test. The cpm obtained from quadruplicate of each test compound were compared to proliferative responses obtained in control PBMCr and PBMCs cultured in the presence of the vehicle. Differences were considered significant at p<0.05.

Balb/c mice, ear burn = experiment: thermal injury model using mouse ear tissue; assay type: in vivo; conditions: injection in propylene glycol after burn
Description: A thermal injury model using mouse ear tissue was used to characterize compounds for their capacity to treat inflammation associated with thermal trauma. […] Groups of Balb/c mice, approximately nine weeks old were given an identifying mark and then divided into control and treated subgroups. The thickness of the ear to be immersed in hot water was recorded, and then the entire ear of the anesthetized mouse was dipped into 52° C. water for 24 seconds. Each mouse was returned to its cage after an injection of either the propylene glycol vehicle (control) or 100 mg of compound in propylene glycol. Ear swelling changes were monitored on individual mice at pre-burn, and at various times after thermal injury. Ear swelling changes were monitored on individual mice at pre-injury and at 1, 3, 6, 9, 12, 18, 24 and 48 hours after thermal injury. Animals were treated with 100 mg of dehydroepiandrosterone (DHEA) dissolved in propylene glycol.

female SJL/J mice, EAE = experiment: experimental allergic encephalomyelitis (EAE), PLP 139-151, Example 6; assay type: in vivo, mouse; conditions: 5 mg/kg daily by oral gavage, through day 26
Description: Treatment of autoimmune neurodegeneration. Three compounds, 17β-aminoandrost-5-ene-3β-ol, 17β-dimethylaminoandrost-5-ene-3β-ol and 17β-methylaminoandrost-5-ene-3β-ol were characterized for their capacity to ameliorate experimental allergic encephalomyelitis (EAE) in mice. This demyelinating condition is extensively used as a model for multiple sclerosis in humans and for testing of new therapies for treating multiple sclerosis, e.g., B. F. Bebo Jr. et al., J. Neurosci. Res. 52:420-426 1998; R. R. Voskuhl et al., Neuroscientist, 7:258-270 2001; H. Offner et al., J. Neuroimmunol., 130:128-139 2002.
In this protocol, the compounds were administered to female SJL/J mice by oral gavage at the onset of disease symptoms. An antigen was used to initiate the EAE condition in the mice. […] Immunization with this peptide antigen initiates an autoimmune Th1 mediated demyelinating disease of the central nervous system. The antigen was prepared by solid phase synthesis and purified by high-performance liquid chromatography. […] The immunization protocol was subcutaneous injection over four sites on the hind flank on day 0. After immunization. the mice were assessed daily for clinical signs of EAE using the following scale: 0=no clinical signs or symptoms; 1=limp tail; 2=mild hind limb weakness and limp tail; 3=moderate hind limb weakness and limp tail or mild ataxia; 4=severe hind limb weakness and mild forearm weakness with moderate ataxia; 5=paraplegia with no more than moderate forelimb weakness; 6=paraplegia with severe forelimb weakness or severe ataxia or moribund condition.
Mice in the vehicle control group began to show observable symptoms of EAE at about 10-11 days after immunization with the PLP antigen, which is typical for the EAE disease model. The animals were dosed daily with 17β-aminoandrost-5-ene-3β-ol, 17β-dimethylaminoandrost-5-ene-3β-ol or 17β-methylaminoandrost-5-ene-3β-ol by oral gavage beginning at day 1, which was 1 day after immunization.

NF-κB = experiment: NF-κB-bla THP-1 β-lactamase reporter assay; assay type: cell-based, human; conditions: Homo sapiens, THP-1, read-out: IC50 for inhibition of NF-κB activation, after LPS stimulation; 50% of the maximum inhibition the compound can induce; averages of 2-4 assays
MG-63 cells = experiment: reversal of glucocorticoid effects in MG-63 osteosarcoma cells; assay type: cell-based, human; conditions: 10 nM compound
[6] = metabolic stability in liver microsomes: human
Description: as §1

[7] = metabolic stability in liver microsomes: mouse; conditions: 10 min
Description: as §1

In the case of `C[C@]12CC[C@H]3[C@@H](CCC4C[C@H](O)CC[C@@]43C)[C@@H]1C[C@@H](O)[C@H]2O` (stereo partly drawn) [3α,16α,17α-trihydroxyandrostane], the “number of neutrophils relative to untreated carrageenan-λ control (100%)” value ([1]; 0.001 mg s.c. 24 h and 1 h before carrageenan-λ) is reported as 103%, the “number of neutrophils relative to untreated carrageenan-λ control (100%)” value ([1]; 0.01 mg s.c. 24 h and 1 h before carrageenan-λ) is reported as 45% and the “number of neutrophils in the pleura” value ([1]; 0.1 mg and 0.01 mg doses s.c.) is reported as “significant reduction”. The “number of neutrophils relative to untreated carrageenan-λ control (100%)” value ([1]; 0.1 mg s.c. 24 h and 1 h before carrageenan-λ) was 30%, the IL-13 ([2]; day 35) was 195 pg/mL and the “IL-5 in lung tissue” value ([2]; day 38) was 90 pg/mL. The IL-13 ([2]; day 38) was 210 pg/mL and the “metabolism by microsomes” value [3] was “metabolized by microsomes at a rate similar to the androst-5-ene-3β,17β-diol reference compound”.

For `C[C@]12CC[C@H]3[C@@H](CC=C4[C@@H](O)[C@@H](O)CC[C@@]43C)[C@@H]1C[C@@H](O)[C@@H]2O` [3β,4β,16α,17β-tetrahydroxyandrost-5-ene], the “decrease of NF-κB activation compared to LPS+vehicle control group” value [4] was “about 50%”.

In the case of `C[C@]12CC[C@H]3[C@@H](CCC4C[C@@H](O)CC[C@@]43C)[C@@H]1CC(=O)[C@@H]2O` (stereo partly drawn) [3β,17β-dihydroxy-16-oxoandrostane], the “immune suppression in the MLR” value ([5]; either 300 nM or 30 nM, p>0.05) is reported as “not appreciably immune suppressive”.

In the case of `CC(=O)O[C@@H]1C2=CC[C@H]3[C@@H]4C[C@@H](O)[C@H](O)[C@@]4(C)CC[C@@H]3[C@@]2(C)CC[C@@H]1O` [4β-acetoxy-3β,16α,17β-trihydroxyandrost-5-ene], the “decrease of NF-κB activation compared to LPS+vehicle control group” value [4] is reported as “about 50%”.

For `C[C@]12CC[C@H](O)CC1=CC[C@@H]1[C@@H]2CC[C@]2(C)C(=O)[C@H](Br)C[C@@H]12` [16α-bromodehydroepiandrosterone], the “protection against progressive ischemia after thermal injury to the ear” value (“protection against progressive ischemia” below) (Balb/c mice, ear burn) was “protected treated animals against much of the ischemic consequences”.

For `C[C@]12CC[C@H](O)CC1=CC[C@@H]1[C@@H]2CC[C@]2(C)C(=O)[C@H](Cl)C[C@@H]12` [16α-chlorodehydroepiandrosterone], the “protection against progressive ischemia” value (Balb/c mice, ear burn) was “only slightly protective”.

With `C[C@]12CC[C@H](O)CC1=CC[C@@H]1[C@@H]2CC[C@]2(C)C(=O)[C@H](O)C[C@@H]12` [16α-hydroxydehydroepiandrosterone] the “protection against progressive ischemia” value (Balb/c mice, ear burn) was “less protective”.

In the case of `C[C@]12CC[C@H]3[C@@H](CC=C4C[C@@H](O)CC[C@@]43C)[C@@H]1CC[C@@H]2N` [17β-aminoandrost-5-ene-3β-ol], the “anti-inflammation activity versus vehicle controls” value ([1]; 40 mg/kg by oral gavage, about 0.5 mg/mouse) is reported as “statistically significant anti-inflammation activity”, the “activity on clinical severity of EAE symptoms” value (from here on “activity on clinical severity”) (female SJL/J mice, EAE) is reported as “active” and the “immune suppression in the MLR” value ([5]; 300 nM, p<0.05) is reported as “moderately immune suppressive”.

With `CN(C)[C@H]1CC[C@H]2[C@@H]3CC=C4C[C@@H](O)CC[C@]4(C)[C@H]3CC[C@]12C` [17β-dimethylaminoandrost-5-ene-3β-ol] the “activity on clinical severity” value (female SJL/J mice, EAE) was “active”.

For `CN[C@H]1CC[C@H]2[C@@H]3CC=C4C[C@@H](O)CC[C@]4(C)[C@H]3CC[C@]12C` [17β-methylaminoandrost-5-ene-3β-ol], the “activity on clinical severity” value (female SJL/J mice, EAE) was “active”.

With `C[C@]12CC[C@H]3[C@@H]([C@H](O)C=C4C[C@@H](O)CC[C@@]43C)[C@@H]1C[C@@H](O)[C@@H]2O` [androst-5-ene-3β,7α,16α,17β-tetrol] the IC50 (NF-κB) was greater than 10 µM, the “osteoprotegerin levels in the presence of 30 nM dexamethasone” value (MG-63 cells) was “near normal osteoprotegerin levels” and the “parent remaining human microsomes” value ([6]; 10 min) was 100% (10 min). For the same compound, the “parent remaining mouse microsomes” value [7] was 100% (10 min).

In the case of `C[C@]12CC[C@H]3[C@@H](CC=C4C[C@@H](O)CC[C@@]43C)[C@@H]1C[C@@H](O)[C@@H]2O` [androst-5-ene-3β,16α,17β-triol], the “metabolism by microsomes” value [3] is reported as “metabolized by microsomes at a rate similar to the androst-5-ene-3β,17β-diol reference compound”.

For `C[C@]12CC[C@H]3[C@@H](CC=C4C[C@@H](O)CC[C@@]43C)[C@@H]1CC[C@@H]2O` [androst-5-ene-3β,17β-diol], the “protection against progressive ischemia” value (Balb/c mice, ear burn) was “protected treated animals against much of the ischemic consequences”, the “parent remaining human microsomes” value ([6]; 10 min) was 39% (10 min) and the “parent remaining human microsomes” value ([6]; 90 min) was 30% (90 min). The “parent remaining mouse microsomes” value [7] was 25% (10 min).
